Source: the SangsterLogP compilation

Legend:
[1] = method code SF-AS, from Lembo, S.; Sasso, V.; Silipo, C.; Vittoria, A. (1983). Physicochemical properties and drug design in a set of analgesics. Farmaco [Sci], 38(10)750-761.; conditions: pH 7.4

| Compound | logD [1] | logP |
| --- | --- | --- |
| CCCCNc1ccccc1C(N)=O | 2.33 | – |
| CCCCNc1ccccc1OC | 2.85 | – |
| CC(C)Nc1ccccc1C(N)=O | – | 1.87 |
| NC(=O)c1ccccc1NC(=O)C(Cl)Cl | – | 1.51 |
| COc1ccccc1NC(=O)C(Cl)Cl | 2.41 | – |
| N#CCNc1ccccc1C(N)=O | 0.5 | – |
| COc1ccccc1NCC(C)=O | 1.49 | – |
| CC(=O)c1ccccc1NCC#N | 1.58 | – |
| CC(=O)Nc1ccccc1C(N)=O | – | 0.31 |
| CC(=O)c1ccccc1NC(=O)C(Cl)Cl | 2.65 | – |
| COc1ccccc1NCC(N)=O | – | 0.63 |
| CC(=O)Nc1ccccc1C(C)=O | – | 1.4 |
| CC(=O)c1ccccc1NCCO | – | 1.28 |
| COc1ccccc1NC(C)=O | – | 1.02 |
| CC(=O)CNc1ccccc1C(N)=O | 0.61 | – |
| COc1ccccc1NCC#N | 1.3 | – |
| COc1ccccc1NCCO | – | 1.07 |
